“Also recorded” adds a separate entry of the source. Where two headings read alike, the source gives them in different places.
What was measured:
[1] = biological target: acetylcholinesterase (Homo sapiens (Human), UniProt P22303); experiment: biochemical; format: biochemical; conditions: for potency on acetylcholinesterase compared with positive control drug donepezil hydrochloride: in vitro, enzymology level
[2] = tested on: learning and memory disorder of mice induced by scopolamine; experiment: Morris water maze test, senile dementia mice model induced by scopolamine; format: in vivo; conditions: Table 6, scopolamine 1 mg/kg
[3] = modified Ellman method, read-out: IC50 (nM), inhibition activity on acetylcholinesterase
[4] = IC50 (nM), inhibition activity on acetylcholinesterase, modified Ellman method
[5] = read-out: IC50 (nM), inhibition activity on acetylcholinesterase

Sequence of acetylcholinesterase (P22303 32-614, species assumed): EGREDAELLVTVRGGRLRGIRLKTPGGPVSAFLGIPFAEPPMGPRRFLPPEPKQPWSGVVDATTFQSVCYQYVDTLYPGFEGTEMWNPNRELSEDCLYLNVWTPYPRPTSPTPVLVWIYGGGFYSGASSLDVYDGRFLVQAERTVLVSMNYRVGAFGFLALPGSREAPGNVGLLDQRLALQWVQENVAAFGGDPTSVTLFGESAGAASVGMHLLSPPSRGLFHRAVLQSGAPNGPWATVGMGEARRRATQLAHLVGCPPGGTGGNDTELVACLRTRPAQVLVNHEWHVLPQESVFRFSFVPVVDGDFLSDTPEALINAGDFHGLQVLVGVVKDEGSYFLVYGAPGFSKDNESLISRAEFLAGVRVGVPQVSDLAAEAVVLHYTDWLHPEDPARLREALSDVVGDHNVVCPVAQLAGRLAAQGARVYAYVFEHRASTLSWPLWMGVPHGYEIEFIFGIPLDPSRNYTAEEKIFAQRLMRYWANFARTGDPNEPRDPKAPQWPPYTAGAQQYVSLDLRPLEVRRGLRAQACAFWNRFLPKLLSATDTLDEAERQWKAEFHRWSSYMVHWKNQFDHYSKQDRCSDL

SMILES | potency on acetylcholinesterase compared with positive control drug donepezil hydrochloride [1] | IC50 [1, 3] [nM] | further results
O=C1c2cc3c(cc2C2(CC2)N1CCC1CCN(Cc2cccnc2)CC1)OCO3 [Compound I-30, 6-[2-[1-(3-pyridylmethyl)-4-piperidyl]ethyl]spiro[[1,3]dioxolo[4,5-f]isoindole-7,1′-cyclopropane]-5-one] | relative low activity | > 2000 | –
O=C1c2cc3c(cc2C2(CC2)N1CCC1CCN(Cc2ncccn2)CC1)OCO3 [Compound I-32, 6-[2-[1-(pyrimidin-2-ylmethyl)-4-piperidyl]ethyl]spiro[[1,3]dioxolo[4,5-f]isoindole-7,1′-cyclopropane]-5-one] | relative low activity | > 2000 | –
CC1(C)c2cc3c(cc2C(=O)N1CCC1CCN(Cc2ccccc2)CC1)OCO3 [Compound I-13, 6-[2-(1-benzyl-4-piperidyl)ethyl]-7,7-dimethyl-[1,3]dioxolo[4,5-f]isoindol-5-one] | relative low activity | – | IC50 [1, 4]: > 2000 nM
O=C1c2cc3c(cc2C2(CC2)N1CCC1CCN(Cc2ccc[nH]2)CC1)OCO3 [Compound I-39, 6-[2-[1-(1H-pyrrol-2-ylmethyl)-4-piperidyl]ethyl]spiro[[1,3]dioxolo[4,5-f]isoindole-7,1′-cyclopropane]-5-one] | relative low activity | – | IC50 [1, 5]: > 2000 nM
O=C1c2cc3c(cc2C(=O)N1CCC1CCN(Cc2cccnn2)CC1)OCO3 [Compound I-37, 6-[2-[1-(pyridazin-3-ylmethyl)-4-piperidyl]ethyl]-[1,3]dioxolo[4,5-f]isoindole-5,7-dione] | even lower | 905 | –
O=C1c2cc3c(cc2C2(CC2)N1CCC1CCN(Cc2ccn[nH]2)CC1)OCO3 [Compound I-41, 6-[2-[1-(1H-pyrazol-5-ylmethyl)-4-piperidyl]ethyl]spiro[[1,3]dioxolo[4,5-f]isoindole-7,1′-cyclopropane]-5-one] | even lower | – | IC50 [1, 5]: 990 nM
CC1c2cc3c(cc2C(=O)N1CCC1CCN(Cc2ccccc2)CC1)OCO3 (stereo not shown) [Compound I-9, 6-[2-(1-benzyl-4-piperidyl)ethyl]-5-methyl-5H-[1,3]dioxolo[4,5-f]isoindol-7-one] | – | – | latent period day 1 ([2]; 5 mg/kg intragastric): 58.9 ± 4.0 s; latent period day 2 ([2]; 5 mg/kg intragastric): 60 ± 0 s; latent period day 3 ([2]; 5 mg/kg intragastric): 51.2 ± 11.0 s; latent period day 4 ([2]; 5 mg/kg intragastric): 53.4 ± 11.8 s; latent period day 5 ([2]; 5 mg/kg intragastric): 51.1 ± 11.5 s; times of crossing platform ([2]; 5 mg/kg intragastric): 1.27 ± 1.44; latent period day 1 ([2]; 10 mg/kg intragastric): 58.3 ± 6.5 s; latent period day 2 ([2]; 10 mg/kg intragastric): 56.6 ± 9.1 s; latent period day 3 ([2]; 10 mg/kg intragastric): 56.5 ± 6.3 s; latent period day 4 ([2]; 10 mg/kg intragastric): 51.1 ± 11.6 s; latent period day 5 ([2]; 10 mg/kg intragastric): 49.2 ± 16.9 s; times of crossing platform ([2]; 10 mg/kg intragastric): 1.80 ± 1.74
COc1ccccc1CN1CCC(CCN2C(=O)c3cc4c(cc3C23CC3)OCO4)CC1 [Compound I-26, 6-[2-[1-[(2-methoxyphenyl)methyl]-4-piperidyl]ethyl]spiro[[1, 3]dioxolo[4,5-f]isoindole-7,1′-cyclopropane]-5-one] | relative low activity | > 2000 | –
O=C1c2cc3c(cc2C2(CC2)N1CCC1CCN(Cc2cccnn2)CC1)OCO3 [Compound I-38, 6-[2-[1-(pyridazin-3-ylmethyl)-4-piperidyl]ethyl]spiro[[1,3]dioxolo[4,5-f]isoindole-7,1′-cyclopropane]-5-one] | relative low activity | – | IC50 [1, 5]: > 2000 nM
CC1c2cc3c(cc2C(=O)N1CCC1CCN(Cc2cccc(F)c2)CC1)OCO3 (stereo not shown) [Compound I-11, 6-[2-[1-[(3-fluorophenyl)methyl]-4-piperidyl]ethyl]-5-methyl-5H-[1,3]dioxolo[4,5-f]isoindol-7-one] | even lower | 889 | –
O=C1c2cc3c(cc2C(=O)N1CCC1CCN(Cc2ccccc2F)CC1)OCO3 [Compound I-2, 6-[2-[1-[(2-fluorophenyl)methyl]-4-piperidyl]ethyl]-[1,3]dioxolo[4,5-f]isoindole-5,7-dione] | slightly higher potency than the positive control drug; also recorded: comparable inhibition activity on acetylcholinesterase with donepezil hydrochloride | – | IC50 [1, 5]: 80 nM
N#Cc1ccccc1CN1CCC(CCN2C(=O)c3cc4c(cc3C23CC3)OCO4)CC1 [Compound I-24, 6-[2-[1-[(2-cyanophenyl)methyl]-4-piperidyl]ethyl]spiro[[1,3]dioxolo[4,5-f]isoindole-7,1′-cyclopropane]-5-one] | relative low activity | > 2000 | –
Cc1ccc(CN2CCC(CCN3C(=O)c4cc5c(cc4C34CC4)OCO5)CC2)[nH]1 [Compound I-40, 6-[2-[1-[(5-methyl-1H-pyrrol-2-yl)methyl]-4-piperidyl]ethyl]spiro[[1,3]dioxolo[4,5-f]isoindole-7,1′-cyclopropane]-5-one] | relative low activity | – | IC50 [1, 5]: > 2000 nM
COc1ccc(CN2CCC(CCN3C(=O)c4cc5c(cc4C34CC4)OCO5)CC2)cc1 [Compound I-28, 6-[2-[1-[(4-methoxyphenyl)methyl]-4-piperidyl]ethyl]spiro[[1, 3]dioxolo[4,5-f]isoindole-7,1′-cyclopropane]-5-one] | relative low activity | – | IC50 [1, 5]: > 2000 nM
O=C1c2cc3c(cc2C2(CC2)N1CCC1CCN(Cc2ccc(F)cc2)CC1)OCO3 [Compound I-20, 6-[2-[1-[(4-fluorophenyl)methyl]-4-piperidyl]ethyl]spiro[[1,3]dioxolo[4,5-f]isoindole-7,1′-cyclopropane]-5-one] | even lower | 706 | –
O=C1c2cc3c(cc2CN1CCC1CCN(Cc2ccc(F)cc2)CC1)OCO3 [Compound I-8, 6-[2-[1-[(4-fluorophenyl)methyl]-4-piperidyl]ethyl]-5H-[1,3]dioxolo[4,5-f]isoindol-7-one] | even lower | 658 | –
O=C1c2cc3c(cc2C2(CC2)N1CCC1CCN(Cc2c(F)cccc2F)CC1)OCO3 [Compound I-25, 6-[2-[1-[(2,6-difluorophenyl)methyl]-4-piperidyl]ethyl]spiro[[1,3]dioxolo[4,5-f]isoindole-7,1′-cyclopropane]-5-one] | slightly lower potency than the positive control drug | – | IC50 [1, 5]: 249 nM
CC1c2cc3c(cc2C(=O)N1CCC1CCN(Cc2ccccc2F)CC1)OCO3 (stereo not shown) [Compound I-10, 6-[2-[1-[(2-fluorophenyl)methyl]-4-piperidyl]ethyl]-5-methyl-5H-[1,3]dioxolo[4,5-f]isoindol-7-one] | slightly lower potency than the positive control drug | 239 | –
CC1c2cc3c(cc2C(=O)N1CCC1CCN(Cc2ccc(F)cc2)CC1)OCO3 (stereo not shown) [Compound I-12, 6-[2-[1-[(4-fluorophenyl)methyl]-4-piperidyl]ethyl]-5-methyl-5H-[1,3]dioxolo[4,5-f]isoindol-7-one] | relative low activity | > 2000 | –
O=C1c2cc3c(cc2C(=O)N1CCC1CCN(Cc2ccccn2)CC1)OCO3 [Compound I-36, 6-[2-[1-(2-pyridylmethyl)-4-piperidyl]ethyl]-[1,3]dioxolo[4,5-f]isoindole-5,7-dione] | slightly lower potency than the positive control drug | 161 | –
O=C1c2cc3c(cc2CN1CCC1CCN(Cc2ccccc2)CC1)OCO3 [Compound I-5, 6-[2-(1-benzyl-4-piperidyl)ethyl]-5H-[1,3]dioxolo[4,5-f]isoindol-7-one] | even lower | – | IC50 [1, 4]: 502 nM
O=C1c2cc3c(cc2C2(CC2)N1CCC1CCN(Cc2ccccc2Cl)CC1)OCO3 [Compound I-21, 6-[2-[1-[(2-chlorophenyl)methyl]-4-piperidyl]ethyl]spiro[[1,3]dioxolo[4,5-f]isoindole-7,1′-cyclopropane]-5-one] | even lower | 653 | –
O=C1c2cc3c(cc2C(=O)N1CCC1CCN(Cc2ccc(F)cc2)CC1)OCO3 [Compound I-4, 6-[2-[1-[(4-fluorophenyl)methyl]-4-piperidyl]ethyl]-[1,3]dioxolo[4,5-f]isoindole-5,7-dione] | slightly lower potency than the positive control drug; also recorded: comparable inhibition activity on acetylcholinesterase with donepezil hydrochloride | 167 | –
COc1cccc(CN2CCC(CCN3C(=O)c4cc5c(cc4C34CC4)OCO5)CC2)c1 [Compound I-27, 6-[2-[1-[(3-methoxyphenyl)methyl]-4-piperidyl]ethyl]spiro[[1, 3]dioxolo[4,5-f]isoindole-7,1′-cyclopropane]-5-one] | relative low activity | > 2000 | –

Source: patent US9346818B2 (priority 2012, dated 2016)
